Experimental data: patent US20070037752A1, “Novel alanyl-amino peptidase inhibitors for functionally influencing different cells and treating immunological, inflammatory, neuronal, and other diseases” (priority 2003, published 2007)
pIC50: −log10 of the molar value. Where two headings read alike, the source gives them in different places. Blank lines part the entries; values can stand above or below the compound they belong to.

Molecular target: alanyl aminopeptidases (APN) (Homo sapiens, UniProt P15144)
Assay: Inhibition of alanyl aminopeptidase enzymatic activity, fluorogenic substrate (Ala)2-rhodamine 110
Type: biochemical
Protocol: The inhibition characteristics measured are referred to as IC-50 values or ID50 values (the latter marked with “*”) for said enzyme. The enzymatic activity was determined by means of the fluorogenic substrate/product (Ala)2-rhodamine 110.

[1] = Table 3, unstarred values, read-out: IC50APN
[2] = Table 4, unstarred values, read-out: IC50APN
[3] = Table 4, starred values = ID50, read-out: ID50 APN (values marked with *)
[4] = Table 3, starred values = ID50, read-out: ID50 APN (values marked with *)
[5] = Table 9, starred values = ID50, read-out: ID50 APN (values marked with *)
[6] = Table 9, unstarred values, read-out: IC50APN

alanyl aminopeptidases (APN), sequence (P15144 whole entry, species assumed): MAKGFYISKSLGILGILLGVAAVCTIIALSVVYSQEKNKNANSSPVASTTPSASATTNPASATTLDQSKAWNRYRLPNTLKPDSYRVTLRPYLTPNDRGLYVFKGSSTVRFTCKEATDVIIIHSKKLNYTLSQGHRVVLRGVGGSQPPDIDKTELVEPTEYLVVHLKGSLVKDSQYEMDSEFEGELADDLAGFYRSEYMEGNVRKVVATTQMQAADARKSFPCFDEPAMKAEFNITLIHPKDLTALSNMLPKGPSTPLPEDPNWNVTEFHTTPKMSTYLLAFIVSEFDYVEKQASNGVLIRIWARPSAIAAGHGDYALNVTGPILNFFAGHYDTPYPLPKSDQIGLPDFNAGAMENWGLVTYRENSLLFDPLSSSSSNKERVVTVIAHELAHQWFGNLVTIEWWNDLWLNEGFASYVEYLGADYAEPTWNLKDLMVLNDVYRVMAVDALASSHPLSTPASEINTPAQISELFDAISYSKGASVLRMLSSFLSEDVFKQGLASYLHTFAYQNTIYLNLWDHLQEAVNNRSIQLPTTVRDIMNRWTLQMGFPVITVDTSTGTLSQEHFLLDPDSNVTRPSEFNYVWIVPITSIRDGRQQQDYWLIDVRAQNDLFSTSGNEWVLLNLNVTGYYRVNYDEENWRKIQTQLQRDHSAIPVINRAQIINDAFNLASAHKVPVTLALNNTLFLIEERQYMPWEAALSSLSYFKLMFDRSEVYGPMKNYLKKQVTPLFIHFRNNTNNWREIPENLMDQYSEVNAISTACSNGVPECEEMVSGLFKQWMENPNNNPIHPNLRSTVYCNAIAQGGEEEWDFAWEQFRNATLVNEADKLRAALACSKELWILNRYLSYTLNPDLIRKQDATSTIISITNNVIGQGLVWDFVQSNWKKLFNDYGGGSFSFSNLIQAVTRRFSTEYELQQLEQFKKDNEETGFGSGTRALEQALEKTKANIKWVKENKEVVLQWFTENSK

pIC50 (Table 5, unstarred values, read-out: IC50APN): 5.44
Structure (SMILES): O=C(Nc1cccc(/N=C/c2cc(/N=N\c3ccccc3Cl)ccc2O)c1)c1ccco1 [A5.001]

pIC50 (Table 11, read-out: IC50APN): 4.34
Structure (SMILES): O=C(N/N=C/c1cccc([N+](=O)[O-])c1)c1ccco1 [A11.029]

pIC50 (Table 12, read-out: IC50APN): 4.33
Structure (SMILES): CC1=C(C#N)C(=O)N(CC(C)O)C(=O)/C1=C/c1ccc(-c2ccc(Br)cc2)o1 (stereo not drawn) [A12.058]

pIC50 [5]: 3.93
Structure (SMILES): COc1c(OCC(O)C(C)(C)O)ccc2c1N=C1OC=CC1C2OC (stereo not drawn) [A9.120]

pIC50 (Table 10, read-out: IC50APN): 5.10
Structure (SMILES): O=C(N/N=C\c1ccco1)c1ccc(S(=O)(=O)N2CCCCCC2)cc1 [A10.002]

pIC50 [6]: 4.84
Structure (SMILES): COc1nncc(-c2cnnc(SC)n2)n1 [A9.033]

pIC50 (Table 11, read-out: IC50APN): 4.97
Structure (SMILES): Cc1ccc(C)c(NC(=O)C(=O)N/N=C/c2cc([N+](=O)[O-])ccc2O)c1 [A11.006]

pIC50 (Table 6, read-out: IC50APN): 5.08
Structure (SMILES): COc1ccc(C(=O)Nc2ccc(S(=O)(=O)N3CCCCC3)cc2)cc1 [A6.001]

pIC50 (Table 12, read-out: IC50APN): 4.96
Structure (SMILES): Cc1ccc(C(=O)N/C(=C\c2ccco2)C(=O)N2CC3CC(C2)c2cccc(=O)n2C3)cc1 (stereo not drawn) [A12.019]

pIC50 (Table 8, unstarred values, read-out: IC50APN): 4.43
Structure (SMILES): O=C1C(Cc2ccc3[nH]ccc3c2)NC(=S)N1c1ccccc1 (stereo not drawn) [A8.029]

pIC50 [5]: 3.70
Structure (SMILES): CC(C)Oc1ccc(/C=N/CCC2(c3ccccc3)CCOC(C)(C)C2)cc1 (stereo not drawn) [A9.126]

pIC50 (Table 12, read-out: IC50APN): 5.20
Structure (SMILES): O=C(CCOC(c1ccccc1)c1ccc(Br)cc1)NO (stereo not drawn) [A12.008]

pIC50 [6]: 4.25
Structure (SMILES): O=C(CNS(=O)(=O)c1ccc2c(c1)OCCO2)N/N=C/c1ccco1 [A9.104]

pIC50 (Table 12, read-out: IC50APN): 6.15
Structure (SMILES): Brc1cc2c(cc1Br)OCCOCCOCCOCCOCCO2 [A12.002]

More lines, now with the values behind:

Structure (SMILES): Cc1cc(C)n(-c2nnc(N)nn2)n1 [A3.107]
pIC50 [1]: 4.69

Structure (SMILES): Cc1ccc(/C=N/NC(=O)c2ccccc2OCc2ccccc2)o1 [A4.045]
pIC50 [2]: 4.74

Structure (SMILES): Cn1c(=O)c2c(ncn2CC(=O)N/N=C/C=C\c2ccco2)n(C)c1=O [A4.166]
pIC50 [3]: 4.10

Structure (SMILES): O=C(N/N=C/c1ccco1)c1ccc(=O)[nH]n1 [A3.130]
pIC50 [1]: 4.65

Structure (SMILES): CCOC(=O)c1c(C)oc2c1c1c(c3ccccc32)OCN(C2CCS(=O)(=O)C2)C1 (stereo not drawn) [A3.129]
pIC50 [1]: 4.65

Structure (SMILES): Cc1ccc(/C=N/NC(=O)c2ccc(O)cc2)o1 [A3.142]
pIC50 [1]: 4.63

Structure (SMILES): Cc1ccc(OCC(=O)N/N=C\c2ccco2)c(C)c1 [A4.168]
pIC50 [3]: 4.09

Structure (SMILES): COc1ccc(C(=O)N/N=C/c2ccco2)cc1 [A4.065]
pIC50 [2]: 4.65

Structure (SMILES): Cc1ccc(/C=N/NC(=O)c2ccc(NC(=O)c3ccccc3C)cc2)o1 [A3.136]
pIC50 [1]: 4.64

Structure (SMILES): Cc1cc(I)ccc1NC(=O)CCC(=O)N/N=C/c1ccco1 [A4.048]
pIC50 [2]: 5.02

Structure (SMILES): COc1cc(-c2cc(C(=O)N/N=C/c3ccco3)[nH]n2)ccc1OC(C)C [A4.114]
pIC50 [2]: 4.44

Structure (SMILES): O=C(CCCOc1ccc(Cl)cc1Cl)N/N=C/c1ccco1 [A4.081]
pIC50 [2]: 4.58

Structure (SMILES): C/C(=N\NC(=O)COc1ccc(C)cc1[N+](=O)[O-])c1ccco1 [A3.351]
pIC50 [4]: 3.37

Structure (SMILES): Cc1ccc(/C=N/NC(=O)c2cccc(Cl)c2)o1 [A4.015]
pIC50 [2]: 4.98

Structure (SMILES): Cc1ccc(C(=O)N/C(=C/c2ccco2)C(=O)N(C)C)cc1 [A3.198]
pIC50 [1]: 4.49

Structure (SMILES): COc1cc(Br)ccc1OCC(=O)N/N=C/C=C/c1ccco1 [A3.043]
pIC50 [1]: 4.96

Structure (SMILES): CCCOc1[nH]c(/N=C/c2ccccc2)c(C#N)c1C#N [A3.105]
pIC50 [1]: 4.70

Structure (SMILES): COc1cc(-c2cc(C(=O)N/N=C/c3ccco3)[nH]n2)ccc1OC(C)C [A3.216a]
pIC50 [1]: 4.44

Structure (SMILES): O=C(Nc1ccccc1C(=O)N/N=C/c1ccco1)c1ccc(Cl)cc1Cl [A4.046]
pIC50 [2]: 4.73

Structure (SMILES): O=C(N/N=C/c1ccco1)c1ccc(O)cc1O [A3.229]
pIC50 [1]: 4.42

Structure (SMILES): O=C(N/N=C/c1ccco1)c1cccc(I)c1 [A3.212]
pIC50 [1]: 4.46

Structure (SMILES): O=C(N/N=C/C=C\c1ccco1)c1ccoc1 [A3.186]
pIC50 [1]: 4.52

Structure (SMILES): CCOC(=O)c1ncn(Cc2ccccc2)c1N [A3.063]
pIC50 [1]: 4.85

Structure (SMILES): C/C(CC1N=NC([N+](=O)[O-])=N1)=N/NC(=O)COc1ccccc1[N+](=O)[O-] (stereo not drawn) [A4.001]
pIC50 [2]: 5.47

Structure (SMILES): COCc1c(C(=O)N/N=C/c2ccc(C)o2)nnn1-c1nonc1N [A3.053]
pIC50 [1]: 4.90

Structure (SMILES): O=C(CS(=O)(=O)c1ccc(Cl)cc1)NO [A1.008]
pIC50 (Table 1, unstarred values, read-out: IC50APN): 4.94

Structure (SMILES): CCOc1ccc(S(=O)(=O)N2CCCCC2)cc1-c1nc2c(C(C)(C)C)nn(C)c2c(=O)[nH]1 [A3.124]
pIC50 [1]: 4.66

Structure (SMILES): CC(C)(C)c1ccc2c(c1)C1c3ccc(C(C)(C)C)cc3C2C2C(=O)N(c3cccc(Cl)c3)C(=O)C12 (stereo not drawn) [A3.348]
pIC50 [4]: 3.49

Structure (SMILES): COc1cc(C(=O)NCC(=O)N/N=C\c2ccc(C)o2)cc(OC)c1OC [A4.182]
pIC50 [3]: 3.79

Structure (SMILES): Cc1ccc(/C=N/NC(=O)c2cccc(NC(=O)c3ccc(F)cc3)c2)o1 [A3.038]
pIC50 [1]: 5.01

Structure (SMILES): Cc1ccccc1S(=O)(=O)Nc1cccc(C(=O)N/N=C/c2ccco2)c1 [A3.097]
pIC50 [1]: 4.72
